Experimental data taken from ChEMBL document CHEMBL3124756, “Hepatitis C virus NS5A replication complex inhibitors. Part 6: Discovery of a novel and highly potent biarylimidazole chemotype with inhibitory activity toward genotypes 1a and 1b replicons” (J Med Chem, 2014).

Experiments:
Hepatitis C virus [1] = experiment: Antiviral activity against Hepatitis C virus genotype 1b infected in human HuH7 cells after 72 hrs by FRET assay; assay type: functional, organism-based, Hepacivirus hominis; details: Huh-7, 72 h
Hepatitis C virus [2] = experiment: Antiviral activity against Hepatitis C virus genotype 1b expressing […] resistant-mutant infected in human HuH7 cells after 72 hrs by FRET assay; assay type: functional, organism-based, Hepacivirus hominis; details: Huh-7, 72 h
[3] = Cytotoxicity against human HuH7 cells infected with HCV genotype 1b after 72 hrs by Alamar blue assay; assay type: cell-based, Huh-7
Hepatitis C virus [4] = experiment: Antiviral activity against Hepatitis C virus genotype 1a infected in human HuH7 cells after 5 days by ELISA; assay type: functional, organism-based, Hepacivirus hominis; details: subtype 1a, Huh-7, 120 h
[5] = tested on: Bovine viral diarrhea virus 1; experiment: Antiviral activity against Bovine viral diarrhea virus infected in human HuH7 cells by luciferase reporter gene assay; assay type: functional, organism-based; details: Bovine viral diarrhea virus isolates and strains, Huh-7
Salmonella typhimurium [6] = experiment: Mutagenic activity in Salmonella typhimurium TA 100 at 1 to 1000 ug/well after 48 hrs by Ames test in presence of rat liver S9 fraction; assay type: toxicity, organism-based; details: salmonella enterica subsp. enterica serovar typhimurium, s9, 48 h
Salmonella typhimurium [7] = experiment: Mutagenic activity in Salmonella typhimurium TA 100 at 1 to 1000 ug/well after 48 hrs by Ames test; assay type: toxicity, organism-based; details: salmonella enterica subsp. enterica serovar typhimurium
[8] = Clearance in rat at 2 mg/kg, iv; assay type: ADME, organism-based; set-up: dose 2 mg/kg, route intravenous; details: in vivo
Hepatitis C virus [9] = experiment: Antiviral activity against Hepatitis C virus genotype 3a infected in human HuH7 cells by FRET assay; assay type: functional, organism-based, Hepacivirus hominis; details: Huh-7
Hepatitis C virus [10] = experiment: Antiviral activity against Hepatitis C virus genotype 4a infected in human HuH7 cells by FRET assay; assay type: functional, organism-based, Hepacivirus hominis; details: Huh-7
Hepatitis C virus [11] = experiment: Antiviral activity against Hepatitis C virus genotype 2a J6 infected in human HuH7 cells by FRET assay; assay type: functional, organism-based, Hepacivirus hominis; details: subtype 2a J6, Huh-7
[12] = Metabolic stability in rat microsomes assessed as compound remaining after 10 mins; assay type: ADME, microsome; details: liver microsomes, read-out: Stability
[13] = Plasma concentration in rat at 5 mg/kg, po after 0.17 hrs; assay type: ADME, organism-based; set-up: dose 5 mg/kg, route oral
[14] = Metabolic stability in human liver microsomes assessed as compound remaining after 10 mins; assay type: ADME; details: read-out: Stability
[15] = Permeability of the compound at pH 7.4 by PAMPA; assay type: physicochemical; details: read-out: permeability
Hepatitis C virus [16] = experiment: Antiviral activity against Hepatitis C virus genotype 5a infected in human HuH7 cells by FRET assay; assay type: functional, organism-based, Hepacivirus hominis; details: Huh-7
Hepatitis C virus [17] = experiment: Antiviral activity against Hepatitis C virus genotype 3a YH infected in human HuH7 cells by FRET assay; assay type: functional, organism-based, Hepacivirus hominis; details: subtype 3a YH, Huh-7
Hepatitis C virus [18] = experiment: Antiviral activity against Hepatitis C virus genotype 1a infected in human HuH7 cells after 72 hrs by FRET assay; assay type: functional, organism-based, Hepacivirus hominis; details: subtype 1a, Huh-7, 72 h
[19] = AUC (24 hrs) in rat at 5 mg/kg, po; assay type: ADME, organism-based; set-up: time < 24 hr, dose 5 mg/kg, route oral; details: plasma
[20] = Oral bioavailability in rat at 5 mg/kg; assay type: ADME, organism-based; details: in vivo
[21] = AUC (4 hrs) in rat at 5 mg/kg, po; assay type: ADME, organism-based; set-up: time < 4 hr, dose 5 mg/kg, route oral; details: plasma
[22] = Efflux ratio of permeability from basolateral to apical side over apical to basolateral side in human Caco2 cells; assay type: ADME, cell-based; details: Caco-2
[23] = Drug metabolism in assay medium assessed as parent compound level at 5 uM after 48 hrs by LC/MS analysis; assay type: physicochemical

Structure (SMILES)	EC50 (Hepatitis C virus [1])	CC50 at 72 h [3]	EC50 (Hepatitis C virus [4])	EC50 [5]	EC50 (Hepatitis C virus [18])	further results
CN(C)[C@@H](C(=O)N1CCC[C@H]1c1nc2ccc(C#Cc3ccc4nc([C@@H]5CCCN5C(=O)[C@@H](c5ccccc5)N(C)C)oc4c3)cc2o1)c1ccccc1	< 4.6 nM	2720 nM	> 1000 nM	390 nM	–	EC50 (Hepatitis C virus [2]): > 1000 nM
CN(C)[C@@H](C(=O)N1CCC[C@H]1c1nc2cc(C#Cc3ccc4[nH]c([C@@H]5CCCN5C(=O)[C@@H](c5ccccc5)N(C)C)nc4c3)ccc2[nH]1)c1ccccc1	0.075 nM	6390 nM	232 nM	3420 nM	–	–
O=C(Nc1ccc(/C=C/c2ccc(NC(=O)[C@@H]3CCCN3C(=O)Cc3ccccc3)cc2)cc1)[C@@H]1CCCN1C(=O)Cc1ccccc1	–	–	–	–	–	Activity (Salmonella typhimurium [6]): Non-toxic; Activity (Salmonella typhimurium [7]): Non-toxic
CN(C)[C@@H](C(=O)N1CCC[C@H]1c1ncc(-c2ccc(-c3ccc(-c4cnc([C@@H]5CCCN5C(=O)[C@@H](c5ccccc5)N(C)C)[nH]4)cc3)cc2)[nH]1)c1ccccc1	0.042 nM	5860 nM	0.037 nM	2350 nM	–	EC50 (Hepatitis C virus [2]): 233 nM; clearance [8]: 17.4 mL/min/kg; EC50 (Hepatitis C virus [9]): 0.015 nM; EC50 (Hepatitis C virus [10]): 0.013 nM; EC50 (Hepatitis C virus [11]): 0.032 nM; remaining at 10 min [12]: 100%; concentration at 0.17 h [13]: 20 nM; remaining at 10 min [14]: 100%; Papp [15]: 0.7 ×10⁻⁶ cm/s; EC50 (Hepatitis C virus [16]): 0.032 nM; EC50 (Hepatitis C virus [17]): 3.8 nM
CC(C)(C)OC(=O)N1CCC[C@H]1c1ncc(-c2ccc(-c3ccc(-c4cnc([C@@H]5CCCN5C(=O)OC(C)(C)C)[nH]4)cc3)cc2)[nH]1	102 nM	9630 nM	–	2760 nM	901 nM	–
CN(C)C(C(=O)N1CCC[C@H]1C(=O)Nc1ccc(-c2ncc(-c3ccc4[nH]c([C@@H]5CCCN5C(=O)[C@@H](c5ccccc5)N(C)C)nc4c3)o2)cc1)c1ccccc1 (single isomer, unassigned)	0.077 nM	> 10000 nM	251 nM	> 370 nM	–	–
COC(=O)N[C@@H](C(=O)N1CCC[C@H]1c1ncc(-c2ccc(-c3ccc(-c4cnc([C@@H]5CCCN5C(=O)[C@@H](c5ccccc5)N(C)C)[nH]4)cc3)cc2)[nH]1)c1ccccc1	0.012 nM	> 9700 nM	0.049 nM	3440 nM	–	–
O=C(Cc1ccccc1)N1CCC[C@H]1c1ncc(-c2ccc(-c3ccc(-c4cnc([C@@H]5CCCN5C(=O)Cc5ccccc5)[nH]4)cc3)cc2)[nH]1	0.33 nM	> 10000 nM	–	596 nM	283 nM	–
O=C(Cc1ccccc1)N1CCC[C@H]1c1nc2cc(C#Cc3ccc4nc([C@@H]5CCCN5C(=O)Cc5ccccc5)[nH]c4c3)ccc2[nH]1	< 4.6 nM	> 10000 nM	–	> 10000 nM	> 100 nM	–
COC(=O)N[C@@H](C(=O)N1CCC[C@H]1c1nc2cc(C#Cc3ccc4[nH]c([C@@H]5CCCN5C(=O)[C@H](NC(=O)OC)c5ccccc5)nc4c3)ccc2[nH]1)c1ccccc1	0.055 nM	> 10000 nM	108 nM	> 10000 nM	–	EC50 (Hepatitis C virus [2]): > 3330 nM; clearance [8]: 1.1 mL/min/kg; AUC at 24 h [19]: 0.539 µM·h; bioavailability [20]: < 1%; AUC at 4 h [21]: 0.466 µM·h; efflux ratio [22]: ≥ 7.2
O=C(Nc1ccc(-c2cnc(-c3ccc(NC(=O)[C@@H]4CCCN4C(=O)Cc4ccccc4)cc3)o2)cc1)[C@@H]1CCCN1C(=O)Cc1ccccc1	429 nM	–	–	–	–	–
O=C(Cc1ccccc1)N1CCC[C@H]1c1nc2ccc(C#Cc3ccc4nc([C@@H]5CCCN5C(=O)Cc5ccccc5)oc4c3)cc2o1	> 1000 nM	> 10000 nM	> 1000 nM	7980 nM	–	Drug metabolism [23]: Active
CN(C)[C@@H](C(=O)N1CCC[C@H]1c1nc2cc(-c3cnc(-c4ccc5[nH]c([C@@H]6CCCN6C(=O)[C@@H](c6ccccc6)N(C)C)nc5c4)o3)ccc2[nH]1)c1ccccc1	< 4.6 nM	> 10000 nM	973 nM	4960 nM	–	–
CN(C)[C@@H](C(=O)N1CCC[C@H]1C(=O)Nc1cccc(-c2ncc(-c3ccc4nc([C@@H]5CCCN5C(=O)[C@@H](c5ccccc5)N(C)C)[nH]c4c3)o2)c1)c1ccccc1	0.14 nM	8610 nM	3.5 nM	3090 nM	–	EC50 (Hepatitis C virus [2]): > 1000 nM
CN(C)[C@@H](C(=O)N1CCC[C@H]1c1nc2cc(C#Cc3ccc4oc([C@@H]5CCCN5C(=O)[C@@H](c5ccccc5)N(C)C)nc4c3)ccc2o1)c1ccccc1	> 1000 nM	4450 nM	> 1000 nM	1390 nM	–	–
O=C(Cc1ccccc1)N1CCC[C@H]1c1nc2cc(C#Cc3ccc4oc([C@@H]5CCCN5C(=O)Cc5ccccc5)nc4c3)ccc2o1	> 1000 nM	> 10000 nM	> 1000 nM	412 nM	–	Drug metabolism [23]: Active
CN(C)[C@@H](C(=O)N1CCC[C@H]1C(=O)Nc1ccc(-c2cnc(-c3cccc(NC(=O)[C@@H]4CCCN4C(=O)[C@@H](c4ccccc4)N(C)C)c3)o2)cc1)c1ccccc1	0.39 nM	5760 nM	–	1220 nM	1.6 nM	–
CN(C)[C@@H](C(=O)N1CCC[C@H]1C(=O)Nc1cccc(-c2cnc(-c3cccc(NC(=O)[C@@H]4CCCN4C(=O)[C@@H](c4ccccc4)N(C)C)c3)o2)c1)c1ccccc1	0.16 nM	4730 nM	–	1160 nM	738 nM	–
COC(=O)N[C@@H](C(=O)N1CCC[C@H]1c1ncc(-c2ccc(-c3ccc(-c4cnc([C@@H]5CCCN5C(=O)OC(C)(C)C)[nH]4)cc3)cc2)[nH]1)c1ccccc1	0.011 nM	> 10000 nM	–	110 nM	203 nM	–
CN(C)[C@H](C(=O)N1CCC[C@H]1c1ncc(-c2ccc(-c3ccc(-c4cnc([C@@H]5CCCN5C(=O)[C@H](c5ccccc5)N(C)C)[nH]4)cc3)cc2)[nH]1)c1ccccc1	5.4 nM	3610 nM	704 nM	1270 nM	–	–
COC(=O)N[C@@H](C(=O)N1CCC[C@H]1c1ncc(-c2ccc(-c3ccc(-c4cnc([C@@H]5CCCN5C(=O)[C@H](NC(=O)OC)c5ccccc5)[nH]4)cc3)cc2)[nH]1)c1ccccc1	0.0067 nM	> 10000 nM	0.028 nM	1460 nM	–	EC50 (Hepatitis C virus [2]): 166 nM; clearance [8]: 11.1 mL/min/kg; EC50 (Hepatitis C virus [9]): 0.004 nM; EC50 (Hepatitis C virus [10]): 0.0057 nM; EC50 (Hepatitis C virus [11]): 0.023 nM; remaining at 10 min [12]: 100%; remaining at 10 min [14]: 100%; EC50 (Hepatitis C virus [16]): 0.014 nM; EC50 (Hepatitis C virus [17]): 4.4 nM
COC(=O)N[C@@H](C(=O)N1CCC[C@H]1c1ncc(-c2ccc(-c3ccc(-c4cnc([C@@H]5CCCN5C(=O)Cc5ccccc5)[nH]4)cc3)cc2)[nH]1)c1ccccc1	0.004 nM	> 10000 nM	14.9 nM	523 nM	–	–
Nc1ccc(/C=C/c2ccc(NC(=O)[C@@H]3CCCN3C(=O)Cc3ccccc3)cc2)cc1	–	–	–	–	–	Activity (Salmonella typhimurium [6]): Toxic
CN(C)[C@@H](C(=O)N1CCC[C@H]1C(=O)Nc1ccc(-c2cnc(-c3ccc(NC(=O)[C@@H]4CCCN4C(=O)[C@@H](c4ccccc4)N(C)C)cc3)o2)cc1)c1ccccc1	677 nM	6010 nM	–	1570 nM	568 nM	–
O=C(Nc1ccc(C#Cc2ccc(NC(=O)[C@@H]3CCCN3C(=O)Cc3ccccc3)cc2)cc1)[C@@H]1CCCN1C(=O)Cc1ccccc1	5.6 nM	> 10000 nM	–	> 10000 nM	> 400 nM	–
